5 compounds from patent publication US20070208166A1, “Tao Kinase Modulators And Method Of Use” (Exelixis, Inc., priority 2003, published 2007) can be followed below.

What all share (assay type): biochemical
In assay [1] the target is T1, KIAA 1361 (baculovirus expressed human KIAA 1361 kinase domain 2-322) (Homo sapiens, UniProt Q7L7X3).
T1 construct: human KIAA 1361 kinase domain 2-322; made in house
T1 sequence (Q7L7X3 2-322): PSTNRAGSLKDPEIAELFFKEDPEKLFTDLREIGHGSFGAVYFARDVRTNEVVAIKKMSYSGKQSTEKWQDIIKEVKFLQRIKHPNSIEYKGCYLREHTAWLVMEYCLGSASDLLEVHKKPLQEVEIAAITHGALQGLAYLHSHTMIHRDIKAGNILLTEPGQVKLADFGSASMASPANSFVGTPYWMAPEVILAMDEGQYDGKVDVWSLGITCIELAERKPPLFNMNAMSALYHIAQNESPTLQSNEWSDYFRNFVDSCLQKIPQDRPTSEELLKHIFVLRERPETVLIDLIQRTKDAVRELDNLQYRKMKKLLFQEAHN
In words: KIAA 1361 Luciferase-Coupled Chemiluminescent Kinase assay (LCCA). The conditions noted are these: 2 μM ATP, 10 μM MBP, 12 nM KIAA 1361, 2 hours; read-out: KIAA1361 inhibition IC50. In a few lines: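 KIAA 1361 kinase domain 2-322 (baculovirus, 12 nM) with 2 μM ATP and 10 μM MBP in Tris pH 7.5, MgCl2, MnCl2; 2 h, ambient. Remaining ATP read by luciferase chemiluminescence; 10 concentrations, IC50 by four-parameter fit.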

Assay [2] deals with T2, JIK (Homo sapiens, UniProt Q9H2K8).
T2 construct: 6 nM JIK (baculovirus expressed human KIAA 1361 kinase domain2-318); made in house
T2 sequence (Q9H2K8 2-318): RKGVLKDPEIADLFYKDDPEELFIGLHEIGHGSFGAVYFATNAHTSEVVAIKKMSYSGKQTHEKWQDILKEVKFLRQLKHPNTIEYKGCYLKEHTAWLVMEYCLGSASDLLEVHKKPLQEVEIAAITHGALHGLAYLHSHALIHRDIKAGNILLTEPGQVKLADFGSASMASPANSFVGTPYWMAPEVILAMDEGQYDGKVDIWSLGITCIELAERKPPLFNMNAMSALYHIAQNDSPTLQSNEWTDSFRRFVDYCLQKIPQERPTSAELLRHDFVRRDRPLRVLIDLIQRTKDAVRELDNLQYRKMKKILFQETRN
In words: JIK Luciferase-Coupled Chemiluminescent Kinase assay (LCCA). The conditions noted are these: 2 μM ATP, 10 μM MBP, 6 nM JIK, 2 hours; read-out: JIK inhibition IC50. In short, it runs like this: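 Baculovirus-expressed human KIAA 1361 kinase domain 2-318 at 6 nM, with 10 μM MBP and 2 μM ATP in Tris pH 7.5 with Mg/Mn, ran 2 h at ambient temperature. Remaining ATP was read by luciferase chemiluminescence. IC50 comes from a 10-concentration four-parameter fit.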

Assay [3] has as its target T3, TAO (Homo sapiens, UniProt Q9UL54).
T3 sequence (Q9UL54 1-1235): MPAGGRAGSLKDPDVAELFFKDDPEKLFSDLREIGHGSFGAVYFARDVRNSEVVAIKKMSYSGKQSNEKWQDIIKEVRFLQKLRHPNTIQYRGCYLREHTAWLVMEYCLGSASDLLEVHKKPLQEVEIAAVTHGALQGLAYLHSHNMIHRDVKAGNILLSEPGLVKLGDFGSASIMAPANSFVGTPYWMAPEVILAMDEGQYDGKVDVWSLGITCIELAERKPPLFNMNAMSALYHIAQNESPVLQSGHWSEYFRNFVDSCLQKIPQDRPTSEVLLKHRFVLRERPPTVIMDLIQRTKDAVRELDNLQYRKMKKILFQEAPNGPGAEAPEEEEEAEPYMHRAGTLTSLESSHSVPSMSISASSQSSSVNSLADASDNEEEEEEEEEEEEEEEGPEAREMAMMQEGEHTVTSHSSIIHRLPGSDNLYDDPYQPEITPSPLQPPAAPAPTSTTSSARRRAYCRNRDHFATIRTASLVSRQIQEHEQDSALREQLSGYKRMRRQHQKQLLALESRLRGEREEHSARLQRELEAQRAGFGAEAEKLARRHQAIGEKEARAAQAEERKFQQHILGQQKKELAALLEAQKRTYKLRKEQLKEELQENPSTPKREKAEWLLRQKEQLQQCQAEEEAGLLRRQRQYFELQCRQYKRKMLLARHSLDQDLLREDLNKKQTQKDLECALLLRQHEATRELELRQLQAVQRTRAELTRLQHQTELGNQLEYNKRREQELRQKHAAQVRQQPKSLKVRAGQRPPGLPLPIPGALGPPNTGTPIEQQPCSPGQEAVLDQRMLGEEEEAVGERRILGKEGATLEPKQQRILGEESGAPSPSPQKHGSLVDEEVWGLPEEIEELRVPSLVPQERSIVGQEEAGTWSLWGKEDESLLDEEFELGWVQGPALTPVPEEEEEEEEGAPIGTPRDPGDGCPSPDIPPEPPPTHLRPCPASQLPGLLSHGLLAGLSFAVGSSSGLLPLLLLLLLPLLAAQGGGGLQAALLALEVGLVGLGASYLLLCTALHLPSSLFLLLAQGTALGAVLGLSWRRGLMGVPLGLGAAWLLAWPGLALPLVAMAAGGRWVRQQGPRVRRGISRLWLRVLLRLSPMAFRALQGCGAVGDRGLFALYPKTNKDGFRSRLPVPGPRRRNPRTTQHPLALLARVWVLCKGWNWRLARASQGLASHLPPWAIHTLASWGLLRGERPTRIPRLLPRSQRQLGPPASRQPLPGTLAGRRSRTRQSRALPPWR
In words: TAO Luciferase-Coupled Chemiluminescent Kinase assay (LCCA). The conditions noted are these: 2 μM ATP, 10 μM MBP, 12 nM TAO, 2 hours; read-out: TAO inhibition IC50.

The term IC50 denotes the concentration that inhibits the measured activity by half. `CCc1ccc(-c2ccc(C(=O)NCC(=O)NC3CN(C(=O)OC(C)(C)C)Cc4ccccc43)cc2)cc1` (stereo not drawn) [Entry 95, 1,1-dimethylethyl 4-({N-[(4′-ethylbiphenyl-4-yl)carbonyl]glycyl}amino)-3,4-dihydroisoquinoline-2(1H)-carboxylate]: the IC50 in assay [1] was over 5000 nM; in assay [2], 500 to 5000 nM; in assay [3] it was over 5 µM.

Take `CCc1ccc(-c2ccc(C(=O)NCC(=O)NC3CNCc4ccccc43)cc2)cc1` (stereo not drawn) [Entry 96, 4′-ethyl-N-[2-oxo-2-(1,2,3,4-tetrahydroisoquinolin-4-ylamino)ethyl]biphenyl-4-carboxamide]: the IC50 in assay [1] fell in the range of 500 to 5000 nM; in assay [2], 500 to 5000 nM; in assay [3], 0.5 to 5 µM.

`O=C(CC(NC(=O)c1ccccc1)c1ccccc1)Nc1nc2ccc(O)cc2s1` (stereo not drawn) [Entry 97, N-{3-[(6-hydroxy-1,3-benzothiazol-2-yl)amino]-3-oxo-1-phenylpropyl)benzamide]: the IC50 in assay [1] was over 5000 nM; in assay [2] it was over 5000 nM; in assay [3], over 5 µM.

Turning to `O=C(CC(NC(=O)c1ccccc1)c1ccccc1)NCC(=O)Nc1nc2ccc(O)cc2s1` (stereo not drawn) [Entry 98, N-[3-({2-[(6-hydroxy-1,3-benzothiazol-2-yl)amino]-2-oxoethyl}amino)-3-oxo-1-phenylpropyl]benzamide], the results for the IC50 in assay [1], in assay [2] and in assay [3] were 50 to 500 nM, under 50 nM and 0.05 to 0.5 µM, respectively.

On to “N-˜2˜-({[4-(1,1-dimethylethyl)phenyl]oxy}acetyl)-N-(1,2,3,4-tetrahydronaphthalen-1-yl)glycinamide [Entry 33]”, for which the figures for the IC50 in assay [1], in assay [2] and in assay [3] were 500 to 5000 nM, 500 to 5000 nM and over 5 µM, respectively.
